These results are taken from US9394253B2, “Kinase protein binding inhibitors” (Roswell Park Cancer Institute, priority 2011, dated 2016).

The target in one experiment is T1, FAK FAT domain (Homo sapiens, UniProt Q05397).
T1 sequence (Q05397 914-1045 limits assumed): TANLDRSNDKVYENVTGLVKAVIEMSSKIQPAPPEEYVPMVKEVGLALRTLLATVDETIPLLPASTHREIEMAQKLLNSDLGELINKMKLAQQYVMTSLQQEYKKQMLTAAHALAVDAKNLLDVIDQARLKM
As to the kind of experiment: Label-free OctetRED binding assay. The text has this:
We used a label-free OctetRED method for determining kinetic constants for the binding of small molecule inhibitors to the FAK FAT domain.
A label-free OctetRED method was used for determining kinetic constants for the binding of C9 or C10 to the FAK-FAT domain. Label-free analysis of the association and dissociation of a small molecule with the target protein of interest results in the determination of kinetic constants including the association rate constant (ka), dissociation rate constant (kd), and equilibrium dissociation constant (KD).

Experiment [1] has as its system pancreatic cancer cell line. As to the kind of experiment: Viability of pancreatic cancer cells exposed to compounds (FIG. 3). In kind it is cell-based, Human. Particulars: 50 μM. Here is the method:
(§1) Equal numbers of cells were plated and allowed to attach for 24 hours. Cells were treated with the drug or control as described. Cellular viability was measured using trypan blue exclusion and cell counting with a hemacytometer. Viability was further measured with an MTS (3-(4,5-dimethylthiazol-2-yl)-5-(3-carboxymethoxyphenyl)-2-(4-sulfophenyl)-2H-tetrazolium) assay. MTS in the presence of phenazine methosulfate (PMS), produces a formazan product that has an absorbance maximum at 490-500 nm in phosphate-buffered saline. In brief, cells were plated at 5×10^3 cells per well on 96-well culture plates and allowed to attach. Following treatment with siRNA or peptides, […] was added to each well and the absorbance at 490 nm was measured using a kinetic microplate reader (Vmax, Molecular Devices, Inc., Sunnyvale, Calif.). The MTS assay was performed at 72 hours after exposure of the cells to determine the IC50 for each of the selected compounds.
FIGS. 1-3 show the results of exposure of the indicated cancer cell lines to 50 μM of the indicated compounds of the invention.

Experiment [2] concerns MiaPaCa-2-luc cells. As to the kind of experiment: MTS cell viability assay, MiaPaCa-2-luc cells. In kind it is cell-based. The note with it: Homo sapiens, MTS assay at 72 hours. Here is the method:
as §1
(§2) In FIGS. 15 and 16, MiaPaCa-2-luc cells (with an IC50 for C9 of 8 μM and for C10 of 20 μM) and MCF-7-VEGFR3 cells (with an IC50 for C9 of 4 μM and for C10 of 8 μM) were treated with 1, 10 or 25 μM C9 or C10 for 24 hours (the MCF-7-VEGFR3 cells serving as a positive control in this study). Western blots were performed as described above to determine the levels of total Akt, phosphorylated Akt (pAkt), total Erk, and phosphorylated Erk (pErk). […]
A general note: Tetrazolium dyes change colour on reduction, which living cells bring about.

The test system of another experiment is MCF-7-VEGFR3 cells. As to the kind of experiment: MTS cell viability assay, MCF-7-VEGFR3 cells. In kind it is cell-based. The note with it: MTS assay at 72 hours. On the procedure: as §1, §2
The target in experiment [3] is T2, FAK and VEGFR3 (Flt-4) proteins (Homo sapiens, UniProt Q05397).
T2 construct: Immunoprecipitation with FAK antibody after 24 h of treatment of MiaPaCa-2 cells; endogenous in cells; host or cells: MiaPaCa-2
T2 sequence (Q05397 2-1052 limits assumed): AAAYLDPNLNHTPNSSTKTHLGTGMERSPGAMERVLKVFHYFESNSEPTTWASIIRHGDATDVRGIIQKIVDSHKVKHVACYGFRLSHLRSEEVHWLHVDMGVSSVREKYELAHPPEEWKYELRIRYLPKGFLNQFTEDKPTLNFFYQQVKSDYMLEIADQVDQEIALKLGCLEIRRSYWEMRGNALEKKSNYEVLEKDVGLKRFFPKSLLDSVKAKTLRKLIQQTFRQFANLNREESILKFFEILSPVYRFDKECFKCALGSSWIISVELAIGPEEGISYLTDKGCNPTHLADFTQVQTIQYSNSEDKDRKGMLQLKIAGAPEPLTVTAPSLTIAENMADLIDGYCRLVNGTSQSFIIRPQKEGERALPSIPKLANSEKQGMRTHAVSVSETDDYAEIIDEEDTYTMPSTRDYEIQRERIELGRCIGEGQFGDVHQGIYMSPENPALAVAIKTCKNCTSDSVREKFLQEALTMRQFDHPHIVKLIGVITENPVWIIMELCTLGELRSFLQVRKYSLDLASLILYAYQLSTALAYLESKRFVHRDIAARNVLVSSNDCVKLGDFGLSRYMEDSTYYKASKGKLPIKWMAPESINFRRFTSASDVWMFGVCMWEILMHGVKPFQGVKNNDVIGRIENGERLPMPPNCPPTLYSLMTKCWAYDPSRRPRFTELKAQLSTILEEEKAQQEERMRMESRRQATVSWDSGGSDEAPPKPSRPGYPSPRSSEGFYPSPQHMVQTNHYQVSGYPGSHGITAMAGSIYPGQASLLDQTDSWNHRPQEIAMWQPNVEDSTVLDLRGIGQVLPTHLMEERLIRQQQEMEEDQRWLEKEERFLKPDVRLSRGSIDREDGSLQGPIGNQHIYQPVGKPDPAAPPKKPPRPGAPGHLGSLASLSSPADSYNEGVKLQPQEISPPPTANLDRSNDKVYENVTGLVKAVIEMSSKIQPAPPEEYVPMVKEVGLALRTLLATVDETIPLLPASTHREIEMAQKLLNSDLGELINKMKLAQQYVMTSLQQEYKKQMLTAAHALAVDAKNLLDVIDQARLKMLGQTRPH
As to the kind of experiment: Immunoprecipitation with FAK antibody after treatment of MiaPaCa-2 cells (FAK-VEGFR3 binding). In kind it is cell-based. Particulars: 24 h of treatment. Here is the method:
For immunoprecipitation, cells are lysed with NP40 lysis buffer, and 1000 μg of total protein is precleared with protein A/G-agarose beads (CalBiochem) at 4° C. for 1 hour and then incubated with 5 μg of antibody overnight followed by a 2 hour incubation with protein A/G-agarose beads at 4° C. Precipitates are washed thrice with cold PBS and the beads are resuspended in SDS-PAGE sample loading buffer, boiled for 5 minutes, and resolved by SDS-PAGE. Proteins are transferred to polyvinylidene difluoride membrane, probed with the appropriate antibody, and detected with chemiluminescence using Amersham ECL Western blotting detection reagents (GE Healthcare Life Sciences, Piscataway, N.J.).
The study utilized the “Octet Red” technology (ForteBio, Menlo Park, Calif.), which provides real-time monitoring for protein-small molecule interactions and binding events using BioLayer Interferometry (BLI) technology. Any change in the number of molecules bound to the biosensor tip changes the optical layer thickness. […] Since C1 is not active against this pancreatic cancer cell line, it was included as a negative control, and chloropyramine (“C4”), which has been shown previously to be active against this cell line, was used as a positive control.

For experiment [4], the system named is pancreatic cancer cell line. In words: Clonogenicity (colony formation). In kind it is cell-based, Human. Particulars: compared with chloropyramine (C4). On the procedure: The 500-1000 cells were plated on 6 well plates and incubated at 37° C. for 1-2 weeks. Then cells were fixed in 25% methanol and stained with Crystal Violet and colonies were visualized and counted in two independent experiments.
In FIG. 11, results of such a clonogenicity study are shown for compounds C9 and C10 using a pancreatic cancer cell line. In this particular study, since compound C1 is not active against this particular cancer cell line (see FIG. 3), it was used as a negative control. Chloropyramine (“C4”), which has been previously shown to have some activity against this cancer cell line, was used as a positive control.

Experiment [5] relates to MiaPaCa-2-luc cells. As to the kind of experiment: Tumor growth in xenograft nude mice. In kind it is in vivo. On the procedure: Female nude or SCID mice were purchased six weeks old and were maintained in the animal facility, and all experiments were performed in compliance with NIH animal use guidelines using IACUC protocol approved by the Roswell Park Animal Care Committee. The 1×10^6 MiaPaCa2 cells were injected into mice subcutaneously. Next day after cell injection or week later, when tumor size reached 100 mm^3, drug was introduced by IP or gavage orally daily, 5 days per week for several weeks. Tumor diameters were measured with calipers and tumor volume in mm^3 was calculated using this formula: tumor volume=(width)^2×Length/2. At the end of the experiment, tumor weight and volume were determined. Tumor samples were collected for Western blotting and for immunohistochemical analysis.
Mice received a daily dose of the indicated amount of compounds 9A, 9B or C10 either by intraperitoneal injection (IP) or by oral gavage (PO). Treatment was initiated after tumors reached a volume of approximately 100 mm^3. […] The percent reduction in tumor volume compared to the control group (“PBS-IP”) is indicated in FIG. 6B for each treatment group.

Experiment [6] has as its system phosphorylated Akt and phosphorylated Erk. As to the kind of experiment: Western blot of downstream effectors of FAK (Akt, Erk). The note with it: MiaPaCa-2-luc and MCF-7-VEGFR3 cells, 1, 10 or 25 μM for 24 hours. In kind it is cell-based. On the procedure:
Western blots were performed essentially as previously described. See: Beierle E, Ma X, Trujillo A, Kurenova E, Cance W, Golubovskaya V: Inhibition of focal adhesion kinase and src increases detachment and apoptosis in human neuroblastoma cell lines. Mol Carcinog 2010, 49:224-234; Kurenova E, Xu L, Yang X, Baldwin A J, Craven R, Hanks S, Liu Z, Cance W: Focal adhesion kinase suppresses apoptosis by binding to the death domain of receptor-interacting protein. Mol Cell Biol 2004, 24:4361-4371. Briefly, cells were treated with the agent under study, then lysed on ice for 30 min in a buffer containing 50 mM Tris-HCL, (pH 7.5), 150 mM NaCl, 1% Triton-X, 0.5% NaDOC, 0.1% SDS, 5 mM EDTA, 50 mM NaF, 1 mM NaVO3, 10% glycerol, and protease inhibitors: 10 μg/mL leupeptin, 10 μg/mL PMSF and 1 μg/ML aprotinin. The lysates were cleared by centrifugation at 10 000 rpm for 30 min at 4° C. Protein concentrations were determined using a Bio-Rad kit (BioRad, Hercules, Calif.) and proteins were separated by electrophoresis on SDS-PAGE gels. Antibodies were used according to manufacturer's recommended conditions. Molecular weight markers were used to confirm the expected size of the target proteins. Immunoblots were developed with chemiluminescence Amersham ECL Western blotting detection reagents (GE Healthcare Biosciences). […]

In the case of `CN(C)CCNc1ccccn1` [Compound C1], at FAK FAT domain, the “binding to the FAT domain of FAK” value is “does not appear to bind”. Besides, in experiment [1], the “activity against pancreatic cancer cell line” value was “not active”.
In the case of `CN(C)CCN(Cc1ccc(Cl)cc1)c1ccc2ccccc2n1` [Compound C10], in the experiment with MiaPaCa-2-luc cells [2], the IC50 stood at 20 µM. The compound further came in with an IC50 with MCF-7-VEGFR3 cells of 8 µM. In experiment [3], the “concentration at which binding of FAK and VEGFR3 (Flt-4) proteins was disrupted” value was 10 µM. Further, the “inhibition of colony formation” value in experiment [4] is “active at much lower doses than C4”. Moreover, the “tumor volume compared to vehicle (PBS)-treated tumors” value in the experiment on MiaPaCa-2-luc cells [5] (IP 20 mg/kg daily, P<0.05) is recorded as “Statistically significant differences”. Besides, the “effectiveness by route of administration” value in the experiment with MiaPaCa-2-luc cells [5] (oral vs intraperitoneal) is listed as “very effective when administered orally”. Besides, in experiment [6], the “phosphorylated Akt level” value was “strong down-regulation” and the “phosphorylated Erk level” value is reported as “strong down-regulation”.

One may read the IC50 as the concentration needed to halve the response being measured.
